Test results from ChEMBL document CHEMBL3885861, “Open TG-GATES”.

Species: Rattus norvegicus
Assay: Open TG-GATES - Regimen: Single
Assay type: toxicity, organism-based, Sprague-Dawley
Set-up: regimen Single, gender Male, age 6 weeks
Conditions: in vivo, po, route gavage; for APTT / Bas / Eos / Fbg / Hb / Ht / Lym / MCH / MCHC / MCV / Mono / Neu / PT / Plat / RBC / Ret / WBC: tissue Blood; for KIDNEY_L / KIDNEY_R / KIDNEY_TOTAL: tissue Kidney; for LIVER: tissue Liver
[1] = 100 mg/kg, 3 h, tissue Plasma, dose level Low
[2] = 100 mg/kg, 6 h, tissue Plasma, dose level Low
[3] = 100 mg/kg, 9 h, tissue Plasma, dose level Low
[4] = 100 mg/kg, 24 h, dose level Low
[5] = 100 mg/kg, 24 h, tissue Plasma, dose level Low

## C[C@H](CS)C(=O)N1CCC[C@H]1C(=O)O [CAPTOPRIL]
0 mg/kg, 24 h, tissue Plasma, dose level Control
  gamma-GTP: 1 IU/L
100 mg/kg, 3 h, dose level Low
  TERMINAL_BW: 224.3 g
  APTT: 16.3 s
  Bas: 0%
  Eos: 1%
  Fbg: 207 mg/dL
  Hb: 13.1 g/dL
  Ht: 40.2%
  Lym: 82.2%
  MCH: 21.1 pg
  MCHC: 32.7%
  MCV: 64.4 fL
  Mono: 4.8%
  Neu: 12.2%
  PT: 11.9 s
  Plat: 123.2 x10_4/uL
  RBC: 624.2 x10_4/ul
  Ret: 7.4%
  KIDNEY_L: 1 g
  KIDNEY_R: 1 g
  KIDNEY_TOTAL: 2.1 g
[1]
  ALP: 996 IU/L
  ALT: 35.6 IU/L
  AST: 67 IU/L
  BUN: 13.8 mg/dL
  CRE: 0.5 mg/dL
  DBIL: 0.008 mg/dL
  GLC: 205.2 mg/dL
  IP: 9.7 mg/dL
  K: 4.9 meq/L
  LDH: 113.6 IU/L
  Na: 137.8 meq/L
  PL: 131.8 mg/dL
  RALB: 3.6 g/dL
  TBIL: 0.4 mg/dL
  TC: 70.4 mg/dL
  TG: 68 mg/dL
  TP: 5.5 g/dL
  gamma-GTP: 2 IU/L
100 mg/kg, 6 h, dose level Low
  TERMINAL_BW: 225.5 g
  APTT: 16.3 s
  Bas: 0%
  Eos: 1%
  Hb: 12.9 g/dL
  Ht: 39.5%
  Lym: 76.4%
  MCH: 21.8 pg
  MCHC: 32.8%
  MCV: 66.5 fL
  Mono: 5.8%
  Neu: 17%
  PT: 12.2 s
  Plat: 113.6 x10_4/uL
  RBC: 595.2 x10_4/ul
  Ret: 7.9%
  WBC: 126.2 x10_2/uL
  KIDNEY_L: 1.1 g
  KIDNEY_R: 1.1 g
  KIDNEY_TOTAL: 2.2 g
[2]
  ALP: 794.8 IU/L
  ALT: 30.8 IU/L
  AST: 55.6 IU/L
  BUN: 17.4 mg/dL
  CRE: 0.6 mg/dL
  DBIL: 0.028 mg/dL
  GLC: 192.4 mg/dL
  IP: 9.6 mg/dL
  K: 4.9 meq/L
  LDH: 73.8 IU/L
  Na: 138.6 meq/L
  PL: 130.6 mg/dL
  RALB: 3.7 g/dL
  TBIL: 0.4 mg/dL
  TC: 69.8 mg/dL
  TG: 62.6 mg/dL
  TP: 5.3 g/dL
  gamma-GTP: 1.6 IU/L
100 mg/kg, 9 h, dose level Low
  TERMINAL_BW: 220.6 g
  APTT: 16.3 s
  Bas: 0%
  Eos: 1%
  Fbg: 205.8 mg/dL
  Hb: 12.8 g/dL
  Ht: 38.8%
  Lym: 74%
  MCH: 21.6 pg
  MCHC: 33%
  MCV: 65.6 fL
  Mono: 5.4%
  Neu: 19.2%
  PT: 12.1 s
  Plat: 119.2 x10_4/uL
  RBC: 591.8 x10_4/ul
  Ret: 8.2%
  KIDNEY_L: 1 g
  KIDNEY_R: 1 g
  KIDNEY_TOTAL: 2 g
  LIVER: 9 g
[3]
  ALP: 891.4 IU/L
  ALT: 30.6 IU/L
  AST: 59.2 IU/L
  BUN: 13.4 mg/dL
  CRE: 0.4 mg/dL
  DBIL: 0.084 mg/dL
  GLC: 202.4 mg/dL
  K: 4.7 meq/L
  LDH: 71 IU/L
  Na: 138.6 meq/L
  PL: 122.4 mg/dL
  RALB: 3.6 g/dL
  TBIL: 0.3 mg/dL
  TC: 65.2 mg/dL
  TG: 55.8 mg/dL
  TP: 5.2 g/dL
  gamma-GTP: 1.8 IU/L
[4]
  TERMINAL_BW: 234.4 g
  APTT: 17.2 s
  Bas: 0%
  Eos: 1.4%
  Hb: 12.8 g/dL
  Ht: 38.4%
  Lym: 71.8%
  MCH: 21.1 pg
  MCHC: 33.2%
  MCV: 63.6 fL
  Mono: 6.4%
  Neu: 20%
  PT: 11.6 s
  Plat: 114.1 x10_4/uL
  RBC: 604.4 x10_4/ul
  Ret: 8.7%
  WBC: 82.6 x10_2/uL
  KIDNEY_L: 1.1 g
  KIDNEY_R: 1.1 g
  KIDNEY_TOTAL: 2.3 g
  LIVER: 11.3 g
[5]
  ALT: 40.8 IU/L
  AST: 68.8 IU/L
  BUN: 15.8 mg/dL
  CRE: 0.6 mg/dL
  Ca: 11.1 mg/dL
  DBIL: 0.058 mg/dL
  GLC: 189.4 mg/dL
  IP: 8.5 mg/dL
  K: 4.6 meq/L
  LDH: 113 IU/L
  Na: 139 meq/L
  PL: 147.6 mg/dL
  RALB: 4 g/dL
  TBIL: 0.3 mg/dL
  TC: 78.8 mg/dL
  TG: 92.8 mg/dL
  TP: 5.8 g/dL
